The values below come from patent publication US5312815A, “Fungicidal (+)-2-(2,4-difluorophenyl)-3-methyl-1-(1H-1,2,4-triazol-1-yl)3-(6-(1H-1, 2,4-triazol-1-yl)pyridazin-3-ylthio) butan-2-ol” (Roussel Morishita Co., Ltd., priority 1992, dated 1994).

Series [1] has as its system Aspergillus fumigatus. In words: In vitro antifungal activity, MIC on mycelium formation. It is filed as cell-based. The following applies: 37° C., 24 hours, Eagle's MEM with 10% fetal bovine serum. On the procedure:
(§1) Candida albicans (10^2 cells) or Aspergillus fumigatus (10^3 cells) was inoculated to 200 μl of an Eagle's minimum essential medium containing 10% fetal bovine serum and a test compound shown in Table 2 below at a dilution increasing by a factor of 2. The system was incubated at 37° C. for 24 hours in a 5 v/v% CO2 stream to obtain the minimum inhibitory concentration (MIC) on mycelium formation.

Series [2] relates to Candida albicans. The description is as above. It is filed as cell-based. To be noted: 37° C., 24 hours, Eagle's MEM with 10% fetal bovine serum. The protocol: as §1
For series [3], the system named is Aspergillus fumigatus Kawasaki strain. The series can be described thus: In vivo antifungal activity, Aspergillus fumigatus infected mice, oral. The arrangement: species or system mouse. To be noted: 25 mg/kg p.o. twice a day, 4 days; for Mean Survival Days: 10 days observation; for Survival Number on Day 1 / Survival Number on Day 2 / Survival Number on Day 3 / Survival Number on Day 4 / Survival Number on Day 5 / Survival Number on Day 6 / Survival Number on Day 7 / Survival Number on Day 8 / Survival Number on Day 9 / Survival Number on Day 10: of 9 mice. On the procedure: Asperoillus fumigatus Kawasaki strain having been cultured at 27° C. for 1 week was suspended in physiological saline, and the suspension (3×10^6 cells) was injected into the tail vein of a 4-week-old day male mouse (9 mice per group). Two days before the infection and on the day of the infection, 100 mg/kg of cyclophosphamide was intraperitoneally administered to each animal.
For comparison, compound (A) shown below which is described in EP 0421210A2, fluconazole (FCZ) and itraconazole (ITZ), were used as a comparative substance. Itraconazole was administered in a polyethylene glycol (400) solution. [drawing 4]

The nature of series [4]: Acute toxicity in mice. The following applies: 1000 mg/kg oral, in 0.5% MC, 5 mice per group, 7 days. The series is classed as in vivo, ICR male mouse.
Series [5] relates to Aspergillus fumigatus Kawasaki strain. In words: In vivo antifungal activity, Aspergillus fumigatus infected mice, i.v. The arrangement: species or system mouse. To be noted: 12.5 mg/kg i.v. twice a day, 4 days. On the procedure: Aspergillus fumigatus Kawasaki strain having been cultured at 27° C. for 1 week was suspended in physiological saline, and the cell suspension (3×10^6 cells) was injected into the tail vein of a 4-week-old day male mouse (9 mice per group). Two days before the infection and on the day of the infection, 100 mg/kg of cyclophosphamide was intraperitoneally administered to each animal.
(§2) For comparison, fluconazole was used as a comparative substance.

The nature of series [6]: Plasma level in dogs (HPLC). The series is classed as in vivo, beagles (dogs). To be noted: dog; for concentration at 0.5 h / concentration at 1 h / concentration at 2 h / concentration at 3 h / concentration at 5 h / concentration at 8 h / concentration at 24 h: plasma. On the procedure: Two beagles per group each received an oral preparation of an inclusion complex composed of the compound of Example 1 and maltosyl-β-cyclodextrin (G2 -β-CyD) at a dose of 10 mg of the compound of Example 1 per kg-b.w. or an intravenous injection of the inclusion complex at a dose of 5 mg of the compound of Example 1 per kg-b.w. For comparison, a suspension of the compound of Example 1 in 0.5% methyl cellulose (MC) was orally administered at a dose of 10 mg per kg-b.w. A-blood sample was taken at 0.5, 1, 2, 3, 5, 8, and 24 hours after administration. After deproteination, the concentration of the compound of formula (I) in the sample was determined by high performance liquid chromatography (HPLC).

The test system of series [7] is Candida albicans CAA-14 strain. In words: In vivo antifungal activity, Candida albicans infected mice, i.v. The following applies: 5 mg/kg i.v. twice a day, 2 days, Example 1 as G2-β-CyD complex, FCZ in saline. On the set-up: species or system ICR male mouse. The protocol: Candida albicans CAA-14 strain having been cultured at 30° C. for 24 hours was suspended in physiological saline, and the cell suspension (5×10^6 cells) was injected into the tail vein of a 5-week-old ICR male mouse (9 mice per group). Two days before the infection and on the day of the infection, 100 mg/kg of cyclophosphamide was intraperitoneally administered to each animal.
as §2

[8] abbreviates: of 9 mice, Example 1 as G2-β-CyD complex, FCZ in saline.
[9] abbreviates: iv, 5 mg/kg, G2-β-CyD inclusion complex.
[10] abbreviates: po, 10 mg/kg, G2-β-CyD inclusion complex.
Setting [11] is: po, 10 mg/kg, suspension in 0.5% MC.

Values after ≈ are worked out from the molar mass of the structure shown.

Consider `CC(C)(Sc1ccc(-n2cncn2)nn1)C(O)(Cn1cncn1)c1ccc(F)cc1F` (single isomer, unassigned; (-)) [Reference Example 12, (-)-2-(2,4-difluorophenyl)-3-methyl-1-(1H-1,2,4-triazol-1-yl)-3-(6-(1H-1,2,4-triazol-1-yl)-pyridazin-3-ylthio)butan-2-ol, reference compound], for which the “MIC on Mycelium Formation, A. fumigatus” value in series [1] amounted to 100 µg/mL (≈ 225 µM). The “MIC on Mycelium Formation, C. albicans” value in series [2] is 1.56 µg/mL (≈ 3.51 µM).
With `CCC(C)n1ncn(-c2ccc(N3CCN(c4ccc(OCC5COC(Cn6cncn6)(c6ccc(Cl)cc6Cl)O5)cc4)CC3)cc2)c1=O` (stereo not shown) [ITZ, itraconazole, reference compound], in series [3] (in 0.5% MC (ITZ: in PEG 400)), the “Mean Survival Days” value was 2.1 days, the “Survival Number on Day 1” value is listed as 9, the “Survival Number on Day 2” value is on record as 9 and the “Survival Number on Day 3” value was 9. In addition, the “Survival Number on Day 4” value in series [3] (in 0.5% MC (ITZ: in PEG 400)) stood at 1.
Regarding `CC(C)(Sc1ccc(-n2cncn2)nn1)C(O)(Cn1cncn1)c1ccc(F)cc1F` (single isomer, unassigned; (+)) [Example 1, (+)-2-(2,4-difluorophenyl)-3-methyl-1-(1H-1,2,4-triazol-1-yl)-3-(6-(1H-1,2,4-triazol-1-yl)pyridazin-3-ylthio)butan-2-ol], the “life or death, acute toxicity” value in series [4] is “No case of death”. Moreover, the “Mean Survival Days” value in series [5] (Example 1 as G2-β-CyD complex, FCZ in saline, 10 days observation) is above 9.0 days. In series [5] (setting [8]), the “Survival Number on Day 1” value stood at 9, the “Survival Number on Day 2” value came to 9 and the “Survival Number on Day 3” value is on record as 9. In addition, in series [5] (of 9 mice, G2-β-CyD complex), the “Survival Number on Day 4” value came to 9, the “Survival Number on Day 5” value was found to be 8, the “Survival Number on Day 6” value is recorded as 8 and the “Survival Number on Day 7” value amounted to 8. Further, in series [5] (of 9 mice, G2-β-CyD complex), the “Survival Number on Day 8” value is given as 7, the “Survival Number on Day 9” value is 7 and the “Survival Number on Day 10” value is given as 7. Also, in series [6] (p.o., inclusion complex with cyclodextrin derivative vs MC suspension), the “absorption from the gastrointestinal tract” value is recorded as “markedly increased absorption from the gastrointestinal tract”. In series [6] (setting [9]), this compound came in with a concentration at 0.5 h of 4100 ng/mL, a concentration at 1 h of 3400 ng/mL, a concentration at 2 h of 2800 ng/mL and a concentration at 3 h of 2000 ng/mL. In series [6] (setting [9]), this compound displayed a concentration at 5 h of 1700 ng/mL, a concentration at 8 h of 1300 ng/mL and a concentration at 24 h of 300 ng/mL. In series [6] (setting [10]), this compound gave a concentration at 0.5 h of 2500 ng/mL, a concentration at 1 h of 2800 ng/mL, a concentration at 2 h of 2900 ng/mL and a concentration at 3 h of 2600 ng/mL. For the same compound, in series [6] (setting [10]), the concentration at 5 h is 2500 ng/mL, the concentration at 8 h stood at 2200 ng/mL and the concentration at 24 h is 700 ng/mL. In series [6] (setting [11]), this compound came in with a concentration at 0.5 h of 300 ng/mL, a concentration at 1 h of 300 ng/mL, a concentration at 2 h of 300 ng/mL and a concentration at 3 h of 200 ng/mL. Further, in series [6] (setting [11]), the concentration at 5 h was determined as 400 ng/mL, the concentration at 8 h came out at 300 ng/mL and the concentration at 24 h was 200 ng/mL. Also, the “MIC on Mycelium Formation, A. fumigatus” value in series [1] is 3.13 µg/mL (≈ 7.04 µM). Also, in series [2], the “MIC on Mycelium Formation, C. albicans” value was found to be 0.05 µg/mL (≈ 0.112 µM). Further, in series [7] (10 days observation), the “Mean Survival Days” value is above 10.0 days. Besides, in series [7] (of 9 mice), the “Survival Number on Day 1” value is reported as 9, the “Survival Number on Day 2” value was 9, the “Survival Number on Day 3” value is listed as 9 and the “Survival Number on Day 4” value came out at 9. In series [7] (of 9 mice), the “Survival Number on Day 5” value was 9, the “Survival Number on Day 6” value was found to be 9, the “Survival Number on Day 7” value is recorded as 9 and the “Survival Number on Day 8” value is 9. For the same compound, in series [7] (of 9 mice), the “Survival Number on Day 9” value was 9 and the “Survival Number on Day 10” value is listed as 9. For the same compound, in series [3] (G2-β-CyD inclusion complex), the “Mean Survival Days” value was above 10 days, the “Survival Number on Day 1” value is listed as 9, the “Survival Number on Day 2” value stood at 9 and the “Survival Number on Day 3” value came to 9. Moreover, in series [3] (G2-β-CyD inclusion complex), the “Survival Number on Day 4” value was 9, the “Survival Number on Day 5” value is 9, the “Survival Number on Day 6” value is 9 and the “Survival Number on Day 7” value is 9. Further, in series [3] (G2-β-CyD inclusion complex), the “Survival Number on Day 8” value is 9, the “Survival Number on Day 9” value is 9 and the “Survival Number on Day 10” value amounted to 9. In series [3] (in 0.5% MC (ITZ: in PEG 400)), the “Mean Survival Days” value is 5.9 days, the “Survival Number on Day 1” value worked out at 9, the “Survival Number on Day 2” value is reported as 9 and the “Survival Number on Day 3” value is reported as 9. Moreover, the “Survival Number on Day 4” value in series [3] (in 0.5% MC (ITZ: in PEG 400)) is 5. In series [3] (in 0.5% MC), the “Survival Number on Day 5” value worked out at 5, the “Survival Number on Day 6” value is listed as 4, the “Survival Number on Day 7” value is on record as 4 and the “Survival Number on Day 8” value is on record as 2. Besides, in series [3] (in 0.5% MC), the “Survival Number on Day 9” value came out at 2 and the “Survival Number on Day 10” value turned out to be 2.
For the compound `Cc1nnc(SC(C)C(O)(Cn2cncn2)c2ccc(F)cc2F)s1` (stereo not shown) [compound (A), reference compound], in series [4], the “life or death, acute toxicity” value is reported as “all of the mice died”. Moreover, in series [3] (in 0.5% MC (ITZ: in PEG 400)), the “Mean Survival Days” value is 2.3 days, the “Survival Number on Day 1” value was determined as 9, the “Survival Number on Day 2” value is 9 and the “Survival Number on Day 3” value was determined as 3. Also, in series [3] (in 0.5% MC (ITZ: in PEG 400)), the “Survival Number on Day 4” value is recorded as 0.
